± gives the expanded uncertainty stated by the source.
Assay: refractive index (Na D-line) (dimensionless); mn = molality of the nth substance listed, in mol/kg
Conditions: 298.15 K, 101 kPa, Liquid, Standard Abbe refractometry

A refractive index (m1 = 0.0207) of 1.3331 ± 0.0027, a refractive index (m1 = 0.0415) of 1.3334 ± 0.0027 and a refractive index (m1 = 0.0697) of 1.3338 ± 0.0027 were found for `O=P([O-])(O)O.[Na+]` [sodium dihydrogen phosphate] + O in this work. For the same molecule, the refractive index (m1 = 0.1051) was 1.3342 ± 0.0027, the refractive index (m1 = 0.1397) was 1.3351 ± 0.0027 and the refractive index (m1 = 0.1901) was 1.3357 ± 0.0027. For the same molecule, the refractive index (m1 = 0.2357) was 1.3363 ± 0.0027, the refractive index (m1 = 0.2947) was 1.3373 ± 0.0027 and the refractive index (m1 = 0.3516) was 1.3382 ± 0.0027. It also gave a refractive index (m1 = 0.433) of 1.3393 ± 0.0027, a refractive index (m1 = 0.5113) of 1.3405 ± 0.0027 and a refractive index (m1 = 0.5842) of 1.3416 ± 0.0027. The refractive index (m1 = 0.653) was 1.3425 ± 0.0027, the refractive index (m1 = 0.6999) was 1.3432 ± 0.0027 and the refractive index (m1 = 0.7919) was 1.3442 ± 0.0027. For the same molecule, the refractive index (m1 = 0.9206) was 1.3459 ± 0.0027, the refractive index (m1 = 1.175) was 1.3491 ± 0.0027 and the refractive index (m1 = 1.18) was 1.3491 ± 0.0027. It also gave a refractive index (m1 = 1.447) of 1.3524 ± 0.0027, a refractive index (m1 = 1.794) of 1.3565 ± 0.0027 and a refractive index (m1 = 2.079) of 1.3597 ± 0.0027. It also gave a refractive index (m1 = 2.396) of 1.3629 ± 0.0027 and a refractive index (m1 = 2.398) of 1.3627 ± 0.0027.
